Source: ChEMBL document CHEMBL1146884, “Effect of lysine at C-terminus of the Dmt-Tic opioid pharmacophore” (J Med Chem, 2006)
pIC50, pKi: −log10 of the molar value. Where a SMILES comes first, the peptide text is derived from it. [ ]: non-standard residue; d: D form. The star is where a group is joined. Dmt = Cc1cc(O)cc(C)c1C[C@H](N)C(=O)O; Tic = O=C(O)[C@@H]1Cc2ccccc2CN1; Cbz = O=C(OCc1ccccc1)*; NHBn = c1ccc(CN*)cc1; NHPh = c1ccc(N*)cc1

Legend:
[1] = target: T1, Delta-type opioid receptor (Mus musculus, UniProt P32300); test: Agonist activity at delta opioid receptor assessed as inhibition of electrically-evoked contraction of mouse vas deferens; assay type: functional, tissue-based
T1 sequence (P32300 whole entry): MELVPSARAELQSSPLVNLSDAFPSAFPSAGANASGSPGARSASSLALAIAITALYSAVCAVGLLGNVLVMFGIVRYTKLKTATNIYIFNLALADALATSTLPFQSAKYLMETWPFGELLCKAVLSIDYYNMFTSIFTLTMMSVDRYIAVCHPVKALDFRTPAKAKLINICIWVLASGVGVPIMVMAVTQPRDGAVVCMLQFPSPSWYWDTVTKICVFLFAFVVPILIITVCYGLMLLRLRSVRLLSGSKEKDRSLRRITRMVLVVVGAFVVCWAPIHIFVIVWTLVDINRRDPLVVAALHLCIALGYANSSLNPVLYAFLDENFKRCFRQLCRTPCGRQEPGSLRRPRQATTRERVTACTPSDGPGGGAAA

[2] = target: T2, Mu-type opioid receptor (Cavia porcellus, UniProt P97266); test: Agonist activity at mu opioid receptor assessed as inhibition of electrically-evoked contraction of guinea pig ileum; assay type: functional, tissue-based
T2 sequence (P97266 whole entry): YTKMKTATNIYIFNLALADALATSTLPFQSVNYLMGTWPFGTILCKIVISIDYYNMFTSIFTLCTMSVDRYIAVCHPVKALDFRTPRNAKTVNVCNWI

[3] = target: T1, Delta-type opioid receptor; test: Antagonist activity at delta opioid receptor assessed as inhibition of deltorphin-2-induced contraction of mouse vas deferens
[4] = target: Delta-type opioid receptor (Rattus norvegicus, UniProt P33533); test: Displacement of [3H]deltorphin2 from delta opioid receptor in Sprague-Dawley rat brain P2 synaptosomal membrane
Delta-type opioid receptor (Rattus norvegicus, UniProt P33533), sequence (P33533 whole entry): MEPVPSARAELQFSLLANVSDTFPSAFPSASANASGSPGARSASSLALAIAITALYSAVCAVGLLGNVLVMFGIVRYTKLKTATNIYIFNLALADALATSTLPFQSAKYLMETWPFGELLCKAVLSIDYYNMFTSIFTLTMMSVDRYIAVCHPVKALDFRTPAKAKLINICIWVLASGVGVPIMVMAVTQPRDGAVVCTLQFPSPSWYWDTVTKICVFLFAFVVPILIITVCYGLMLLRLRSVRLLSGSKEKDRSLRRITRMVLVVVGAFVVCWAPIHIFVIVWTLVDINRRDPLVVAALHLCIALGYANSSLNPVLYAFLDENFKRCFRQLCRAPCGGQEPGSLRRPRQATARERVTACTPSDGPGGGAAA

[5] = target: Mu-type opioid receptor (Rattus norvegicus, UniProt P33535); test: Displacement of [3H]DAMGO from mu opioid receptor in Sprague-Dawley rat brain P2 synaptosomal membrane
Mu-type opioid receptor (Rattus norvegicus, UniProt P33535), sequence (P33535 whole entry): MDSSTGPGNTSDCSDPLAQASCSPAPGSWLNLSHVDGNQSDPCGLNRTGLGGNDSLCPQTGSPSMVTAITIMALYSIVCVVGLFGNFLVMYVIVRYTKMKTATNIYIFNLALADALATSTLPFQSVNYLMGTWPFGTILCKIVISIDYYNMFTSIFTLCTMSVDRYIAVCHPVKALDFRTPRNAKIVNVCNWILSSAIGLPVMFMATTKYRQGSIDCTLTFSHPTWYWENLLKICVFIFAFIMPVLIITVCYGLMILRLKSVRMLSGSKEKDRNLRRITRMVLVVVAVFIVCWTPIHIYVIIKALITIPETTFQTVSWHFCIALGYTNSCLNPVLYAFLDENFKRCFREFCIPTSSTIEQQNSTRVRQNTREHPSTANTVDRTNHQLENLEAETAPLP

[6] = target: Opioid receptors; mu & delta (Rattus norvegicus) (UniProt P33533+P33535); test: Selectivity for delta opioid receptor over mu opioid receptor in Sprague-Dawley rat brain P2 synaptosomal membrane
Opioid receptors; mu & delta (Rattus norvegicus), sequence (P33533 whole entry, looked up): as the sequence (P33533 whole entry) above
Opioid receptors; mu & delta (Rattus norvegicus), sequence (P33535 whole entry, looked up): as the sequence (P33535 whole entry) above

[7] = target: T2, Mu-type opioid receptor; test: Antagonist activity at mu opioid receptor assessed as inhibition of endomorphin-2-induced contraction of guinea pig ileum; assay type: functional, tissue-based; settings: read-out: pA2 (converted)

Structure (SMILES) | pIC50 [1] | pIC50 [2] | Kb [3] | pKi [4] | pKi [5] | Ratio Ki [6] | Kb [7]
Cc1cc(O)cc(C)c1C[C@H](N)C(=O)N1Cc2ccccc2C[C@H]1C(=O)N[C@@H](CCCCNC(=O)OCc1ccccc1)c1nc2ccccc2[nH]1 | 5.04 | 6.43 | > 10000 nM | 9.19 | 9.43 |  | 
Cc1cc(O)cc(C)c1C[C@H](N)C(=O)N1Cc2ccccc2C[C@H]1C(=O)N[C@H](CCCCNC(=O)OCc1ccccc1)c1nc2ccccc2[nH]1 | < 5.00 | 7.20 | > 10000 nM | 9.40 | 9.82 |  | 
CC(=O)NCCCC[C@H](NC(=O)[C@@H]1Cc2ccccc2CN1C(=O)[C@@H](N)Cc1c(C)cc(O)cc1C)c1nc2ccccc2[nH]1 | < 5.00 | 7.27 |  | 9.74 | 9.89 |  | 
Cc1cc(O)cc(C)c1C[C@H](N)C(=O)N1Cc2ccccc2C[C@H]1C(=O)N[C@@H](CCCCN)c1nc2ccccc2[nH]1 | < 5.00 | 7.40 |  | 9.31 | 9.80 |  | 
Cc1cc(O)cc(C)c1C[C@H](N)C(=O)N1Cc2ccccc2C[C@H]1C(=O)NCC(=O)O (H-[Dmt]-[Tic]-Gly-OH) |  |  | 1.41 nM | 8.86 | 6.28 | 383 | 
CC(=O)NCCCC[C@H](NC(=O)[C@@H]1Cc2ccccc2CN1C(=O)[C@@H](N)Cc1c(C)cc(O)cc1C)C(=O)NCc1ccccc1 (H-[Dmt]-[Tic]-Lys(Ac)-NHBn) | < 5.00 | < 5.00 | 0.0398 nM | 10.17 | 8.26 | 81 | 6.92 nM
CC(=O)NCCCC[C@H](NC(=O)[C@@H]1Cc2ccccc2CN1C(=O)[C@@H](N)Cc1c(C)cc(O)cc1C)C(=O)Nc1ccccc1 (H-[Dmt]-[Tic]-Lys(Ac)-NHPh) | < 5.00 | 5.90 | 0.001 nM | 9.89 | 9.20 | 5 | 
Cc1cc(O)cc(C)c1C[C@H](N)C(=O)N1Cc2ccccc2C[C@H]1C(=O)N[C@@H](CCCCNC(=O)OCc1ccccc1)C(=O)NCc1ccccc1 (H-[Dmt]-[Tic]-Lys(Cbz)-NHBn) | < 5.00 | < 5.00 | 617 nM | 9.51 | 8.36 | 14 | 1510 nM
Cc1cc(O)cc(C)c1C[C@H](N)C(=O)N1Cc2ccccc2C[C@H]1C(=O)N[C@@H](CCCCNC(=O)OCc1ccccc1)C(=O)Nc1ccccc1 (H-[Dmt]-[Tic]-Lys(Cbz)-NHPh) | < 5.00 | 6.36 | 1700 nM | 9.24 | 8.83 | 3 | 
Cc1cc(O)cc(C)c1C[C@H](N)C(=O)N1Cc2ccccc2C[C@H]1C(=O)N[C@@H](CCCCN)C(=O)NCc1ccccc1 (H-[Dmt]-[Tic]-Lys-NHBn) | < 5.00 | < 5.00 | 977 nM | 9.30 | 8.39 | 8 | 11 nM
Cc1cc(O)cc(C)c1C[C@H](N)C(=O)N1Cc2ccccc2C[C@H]1C(=O)N[C@@H](CCCCN)C(=O)Nc1ccccc1 (H-[Dmt]-[Tic]-Lys-NHPh) | < 5.00 | 5.90 | 4170 nM | 9.38 | 9.03 | 2 | 
